According to ChEMBL document CHEMBL2407067, “Pyridone-conjugated monobactam antibiotics with gram-negative activity” (J Med Chem, 2013):

What was measured:
Pseudomonas aeruginosa [1] = test: Ratio of MIC for PiuA/PirA receptor-deficient Pseudomonas aeruginosa PAO1 to MIC for Pseudomonas aeruginosa PAO1 in iron-chelated Muller-Hinton broth medium by broth microdilution method; assay type: functional
Pseudomonas aeruginosa [2] = test: Ratio of MIC for PiuA/PirA receptor-deficient Pseudomonas aeruginosa PAO1 to MIC for Pseudomonas aeruginosa PAO1 in Muller-Hinton broth medium by broth microdilution method; assay type: functional
Pseudomonas aeruginosa [3] = test: Ratio of MIC for PiuA receptor-deficient Pseudomonas aeruginosa PAO1 to MIC for Pseudomonas aeruginosa PAO1 in Muller-Hinton broth medium by broth microdilution method; assay type: functional
Pseudomonas aeruginosa [4] = test: Antibacterial activity against PiuA/PirA receptor-deficient Pseudomonas aeruginosa PAO1 in iron-chelated Muller-Hinton broth medium by broth microdilution method; assay type: functional
Pseudomonas aeruginosa [5] = test: Antibacterial activity against PiuA/PirA receptor-deficient Pseudomonas aeruginosa PAO1 in Muller-Hinton broth medium by broth microdilution method; assay type: functional
Pseudomonas aeruginosa [6] = test: Antibacterial activity against PiuA/FptA receptor-deficient Pseudomonas aeruginosa PAO1 in iron-chelated Muller-Hinton broth medium by broth microdilution method; assay type: functional
Pseudomonas aeruginosa [7] = test: Antibacterial activity against PiuA/FptA receptor-deficient Pseudomonas aeruginosa PAO1 in Muller-Hinton broth medium by broth microdilution method; assay type: functional
Pseudomonas aeruginosa [8] = test: Antibacterial activity against PiuA/FpvA receptor-deficient Pseudomonas aeruginosa PAO1 in iron-chelated Muller-Hinton broth medium by broth microdilution method; assay type: functional
Pseudomonas aeruginosa [9] = test: Antibacterial activity against PiuA/FpvA receptor-deficient Pseudomonas aeruginosa PAO1 in Muller-Hinton broth medium by broth microdilution method; assay type: functional
Pseudomonas aeruginosa [10] = test: Antibacterial activity against FptA receptor-deficient Pseudomonas aeruginosa PAO1 in iron-chelated Muller-Hinton broth medium by broth microdilution method; assay type: functional
Pseudomonas aeruginosa [11] = test: Antibacterial activity against FptA receptor-deficient Pseudomonas aeruginosa PAO1 in Muller-Hinton broth medium by broth microdilution method; assay type: functional
Pseudomonas aeruginosa [12] = test: Antibacterial activity against FpvA receptor-deficient Pseudomonas aeruginosa PAO1 in iron-chelated Muller-Hinton broth medium by broth microdilution method; assay type: functional
Pseudomonas aeruginosa [13] = test: Antibacterial activity against FpvA receptor-deficient Pseudomonas aeruginosa PAO1 in Muller-Hinton broth medium by broth microdilution method; assay type: functional
Pseudomonas aeruginosa [14] = test: Antibacterial activity against PirA receptor-deficient Pseudomonas aeruginosa PAO1 in iron-chelated Muller-Hinton broth medium by broth microdilution method; assay type: functional
Pseudomonas aeruginosa [15] = test: Antibacterial activity against PirA receptor-deficient Pseudomonas aeruginosa PAO1 in Muller-Hinton broth medium by broth microdilution method; assay type: functional
Pseudomonas aeruginosa [16] = test: Antibacterial activity against PiuA receptor-deficient Pseudomonas aeruginosa PAO1 in iron-chelated Muller-Hinton broth medium by broth microdilution method; assay type: functional
Pseudomonas aeruginosa [17] = test: Antibacterial activity against PiuA receptor-deficient Pseudomonas aeruginosa PAO1 in Muller-Hinton broth medium by broth microdilution method; assay type: functional
Pseudomonas aeruginosa [18] = test: Antibacterial activity against Pseudomonas aeruginosa PAO1 in iron-chelated Muller-Hinton broth medium by broth microdilution method; assay type: functional
Pseudomonas aeruginosa [19] = test: Antibacterial activity against Pseudomonas aeruginosa PAO1 in Muller-Hinton broth medium by broth microdilution method; assay type: functional
Acinetobacter baumannii = test: Antibacterial activity against Acinetobacter baumannii AB-3167 by broth microdilution method; assay type: functional
Klebsiella pneumoniae [20] = test: Antibacterial activity against Klebsiella pneumoniae 1487-07 by broth microdilution method; assay type: functional
Klebsiella pneumoniae [21] = test: Antibacterial activity against Klebsiella pneumoniae 1000-02 by broth microdilution method; assay type: functional
Pseudomonas aeruginosa [22] = test: Antibacterial activity against Pseudomonas aeruginosa 1042-06 by broth microdilution method; assay type: functional
Pseudomonas aeruginosa [23] = test: microbe, parasite or virus in culture; details: 1091-05
Description: Antibacterial activity against Pseudomonas aeruginosa 1091-05 by broth microdilution method

[24] = Inhibition of PBP3 in Pseudomonas aeruginosa ATCC 27853 after 20 mins by fluorescence assay
[25] = Inhibition of PBP2 in Pseudomonas aeruginosa ATCC 27853 after 20 mins by fluorescence assay
[26] = Inhibition of PBP1b in Pseudomonas aeruginosa ATCC 27853 after 20 mins by fluorescence assay
[27] = Inhibition of PBP1a in Pseudomonas aeruginosa ATCC 27853 after 20 mins by fluorescence assay

**Q.** Which Ratio (Pseudomonas aeruginosa [1]) does the source give for CC(C)(O/N=C(\C(=O)N[C@@H]1C(=O)N(S(=O)(=O)[O-])[C@@H]1CNC(=O)c1cc(=O)c(O)cn1O)c1csc(N)n1)C(=O)[O-].[Na+].[Na+] here?
**A.** The Ratio was “>=64”.

**Q.** What about the Ratio (Pseudomonas aeruginosa [2]) of the same compound?
**A.** The Ratio was “>=64”.

**Q.** And the Ratio (Pseudomonas aeruginosa [3])?
**A.** Its Ratio is 16.

**Q.** What about the MIC (Pseudomonas aeruginosa [4]) of the same compound?
**A.** The MIC was 64 µg/mL.

**Q.** And the MIC (Pseudomonas aeruginosa [5])?
**A.** The MIC was 64 µg/mL.

**Q.** And the MIC (Pseudomonas aeruginosa [6])?
**A.** Its MIC is 0.5 µg/mL.

**Q.** And the MIC (Pseudomonas aeruginosa [7])?
**A.** Its MIC is 8 µg/mL.

**Q.** And the MIC (Pseudomonas aeruginosa [8])?
**A.** The MIC was 1 µg/mL.

**Q.** What about the MIC (Pseudomonas aeruginosa [9]) of the same compound?
**A.** The MIC was 16 µg/mL.

**Q.** What about the MIC (Pseudomonas aeruginosa [10]) of the same compound?
**A.** Its MIC is 0.5 µg/mL.

**Q.** What about the MIC (Pseudomonas aeruginosa [11]) of the same compound?
**A.** Its MIC is 0.5 µg/mL.

**Q.** What about the MIC (Pseudomonas aeruginosa [12]) of the same compound?
**A.** Its MIC is 0.5 µg/mL.

**Q.** What about the MIC (Pseudomonas aeruginosa [13]) of the same compound?
**A.** Its MIC is 1 µg/mL.

**Q.** What about the MIC (Pseudomonas aeruginosa [14]) of the same compound?
**A.** The MIC was 0.5 µg/mL.

**Q.** And the MIC (Pseudomonas aeruginosa [15])?
**A.** Its MIC is 0.5 µg/mL.

**Q.** What about the MIC (Pseudomonas aeruginosa [16]) of the same compound?
**A.** Its MIC is 0.5 µg/mL.

**Q.** And the MIC (Pseudomonas aeruginosa [17])?
**A.** The MIC was 8 µg/mL.

**Q.** What about the MIC (Pseudomonas aeruginosa [18]) of the same compound?
**A.** Its MIC is 0.5 µg/mL.

**Q.** What about the MIC (Pseudomonas aeruginosa [19]) of the same compound?
**A.** The MIC was 0.5 µg/mL.

**Q.** And the MIC (Acinetobacter baumannii)?
**A.** Its MIC is 0.5 µg/mL.

**Q.** What about the MIC (Klebsiella pneumoniae [20]) of the same compound?
**A.** The MIC was 0.25 µg/mL.

**Q.** What about the MIC (Klebsiella pneumoniae [21]) of the same compound?
**A.** The MIC was less than 0.06 µg/mL.

**Q.** What about the MIC (Pseudomonas aeruginosa [22]) of the same compound?
**A.** Its MIC is 0.5 µg/mL.

**Q.** And the MIC (Pseudomonas aeruginosa [23])?
**A.** Its MIC is 0.5 µg/mL.

**Q.** With CC(C)(O/N=C(\C(=O)N[C@@H]1C(=O)N(S(=O)(=O)[O-])[C@@H]1CNC(=O)c1cc(-c2cc(=O)c(O)cn2O)no1)c1csc(N)n1)C(=O)[O-].[Na+].[Na+] as the compound, how does the Ratio (Pseudomonas aeruginosa [1]) read?
**A.** The Ratio was “>=64”.

**Q.** And the Ratio (Pseudomonas aeruginosa [2])?
**A.** Its Ratio is “>=64”.

**Q.** And the Ratio (Pseudomonas aeruginosa [3])?
**A.** Its Ratio is 32.

**Q.** And the IC50 [24]?
**A.** The IC50 was 6 nM.

**Q.** What about the IC50 [25] of the same compound?
**A.** The IC50 was greater than 300000 nM.

**Q.** And the IC50 [26]?
**A.** The IC50 was 150 nM.

**Q.** What about the IC50 [27] of the same compound?
**A.** Its IC50 is 110 nM.

**Q.** And the MIC (Pseudomonas aeruginosa [4])?
**A.** The MIC was 16 µg/mL.

**Q.** And the MIC (Pseudomonas aeruginosa [5])?
**A.** The MIC was 32 µg/mL.

**Q.** And the MIC (Pseudomonas aeruginosa [6])?
**A.** The MIC was 1 µg/mL.

**Q.** And the MIC (Pseudomonas aeruginosa [7])?
**A.** Its MIC is 8 µg/mL.

**Q.** What about the MIC (Pseudomonas aeruginosa [8]) of the same compound?
**A.** Its MIC is 0.5 µg/mL.

**Q.** And the MIC (Pseudomonas aeruginosa [9])?
**A.** Its MIC is 8 µg/mL.

**Q.** What about the MIC (Pseudomonas aeruginosa [10]) of the same compound?
**A.** Its MIC is 0.25 µg/mL.

**Q.** And the MIC (Pseudomonas aeruginosa [11])?
**A.** Its MIC is 0.25 µg/mL.

**Q.** What about the MIC (Pseudomonas aeruginosa [12]) of the same compound?
**A.** The MIC was 0.125 µg/mL.

**Q.** What about the MIC (Pseudomonas aeruginosa [13]) of the same compound?
**A.** The MIC was 0.125 µg/mL.

**Q.** What about the MIC (Pseudomonas aeruginosa [14]) of the same compound?
**A.** Its MIC is 0.25 µg/mL.

**Q.** And the MIC (Pseudomonas aeruginosa [15])?
**A.** The MIC was 0.25 µg/mL.

**Q.** What about the MIC (Pseudomonas aeruginosa [16]) of the same compound?
**A.** The MIC was 1 µg/mL.

**Q.** What about the MIC (Pseudomonas aeruginosa [17]) of the same compound?
**A.** Its MIC is 8 µg/mL.

**Q.** And the MIC (Pseudomonas aeruginosa [18])?
**A.** Its MIC is 0.25 µg/mL.

**Q.** And the MIC (Pseudomonas aeruginosa [19])?
**A.** The MIC was 0.25 µg/mL.

**Q.** And the MIC (Acinetobacter baumannii)?
**A.** Its MIC is 0.125 µg/mL.

**Q.** What about the MIC (Klebsiella pneumoniae [21]) of the same compound?
**A.** Its MIC is 1 µg/mL.

**Q.** What about the MIC (Pseudomonas aeruginosa [22]) of the same compound?
**A.** The MIC was 0.25 µg/mL.

**Q.** What about the MIC (Pseudomonas aeruginosa [23]) of the same compound?
**A.** The MIC was 0.25 µg/mL.
